Measurements from US11547130B2, “Nanocomposite bacteriostatic material and a preparation method and an application thereof” (Tianjin University of Science and Technology, priority 2019, dated 2023).

System: Bacillus subtilis
Assay: Shake-flask antibacterial test, viable count by dilution spread plate method
Format: cell-based
Protocol: Bacillus subtilis was selected as a strain for the antibacterial test. The Bacillus subtilis was cultured for overnight in a shake flask first, and a bacteria solution having a concentration of 10^8 CFU/mL was selected as a seed solution for later use. Multiple 100 mL triangular flasks provided with 30 mL of LB liquid medium were taken, and sterilized for 20 min at 121° C. The triangular flasks were divided into four groups, three triangular flasks in each group for parallel test.
(§1) The Bacillus subtilis solution having the concentration of 10^8 CFU/mL was inoculated to the above four groups as per an inoculum size of 2% (v/v), and respectively cultured for 4 h, 8 h, 12 h, 24 h and 28 h on a shaker, where a culture condition was 37° C. and 180 r/min. Then, a sample at every timing was taken, and a viable count in each shake flask was measured via a dilution spread plate method to embody the antibacterial activity.
as §1, with “r/min, for sampling.” for “r/min.”, “sample” for “sample at every timing”, “flask at every moment” for “flask”

Substance: nisin
- concentration of bacteria in the shake flask (Experimental example 1 (Embodiment 1 materials, nisin 1 g/L), 1 mL agent in 30 mL LB, 8-12 h in culture): ≥ 10^7 CFU/mL
- concentration of viable bacteria in the shake flask (Experimental example 1 (Embodiment 1 materials, nisin 1 g/L), 1 mL agent in 30 mL LB, 4 h in culture, 37° C.): ≥ 10^4 CFU/mL
- antibacterial activity in words (Experimental example 1 (nisin 1 g/L), nisin at 8 h, empty carrier at 24-28 h, nano-composite at 28 h): lost bacteriostatic action at 8 h
- antibacterial activity in words (Experimental example 2 (Embodiment 2 materials, nisin 10 g/L), at 16 h): greatly reduced
